Results from paper PMC10010161 (RSC Advances, 2023).
Where a SMILES comes first, the peptide text is derived from it.

Tests used:
[1] = Horizon-LBA; assay type: in vitro ADME; conditions: DOPC; for relative permeability compared with CsA (in words): 2 h; for degree of decrease of permeability coefficient relative to 1: 1.5 h
[2] = PAMPA; cited from earlier work
[3] = system: Caco-2; conditions: Caco-2 assay; cited from earlier work

| Compound | relative permeability compared with CsA (in words) [1] | degree of decrease of permeability coefficient relative to 1 [1] | other results |
| --- | --- | --- | --- |
| CC[C@@H]1NC(=O)[C@H](C)N(C)C(=O)[C@H](C(C)C)N(C)C(=O)[C@H](CC(C)C)N(C)C(=O)[C@H](CC(C)C)N(C)C(=O)[C@@H](C)NC(=O)[C@H](C)NC(=O)[C@H](CC(C)C)N(C)C(=O)[C@H](C(C)C)NC(=O)[C@H](CC(C)C)N(C)C(=O)CN(C)C1=O [compound 1] | higher permeability than CsA |  |  |
| CC[C@@H]1NC(=O)[C@H](CC(C)C)N(C)C(=O)[C@H](C(C)C)N(C)C(=O)[C@H](CC(C)C)N(C)C(=O)[C@H](CC(C)C)N(C)C(=O)[C@@H](C)NC(=O)[C@H](C)NC(=O)[C@H](CC(C)C)N(C)C(=O)[C@H](C(C)C)NC(=O)[C@H](CC(C)C)N(C)C(=O)CN(C)C1=O [compound 2] | significant differences in the relative permeability of 2 and 3 from CsA were not observed |  |  |
| CC[C@@H]1NC(=O)[C@H]([C@@H](C)O)N(C)C(=O)[C@H](C(C)C)N(C)C(=O)[C@H](CC(C)C)N(C)C(=O)[C@H](CC(C)C)N(C)C(=O)[C@@H](C)NC(=O)[C@H](C)NC(=O)[C@H](CC(C)C)N(C)C(=O)[C@H](C(C)C)NC(=O)[C@H](CC(C)C)N(C)C(=O)CN(C)C1=O [compound 3] | significant differences in the relative permeability of 2 and 3 from CsA were not observed |  |  |
| CC[C@@H]1NC(=O)[C@H](C)N(C)C(=O)[C@H](C(C)C)N(C)C(=O)[C@H](CC(C)C)N(C)C(=O)[C@H](CC(C)C)N(C)C(=O)[C@@H](C)NC(=O)[C@H](C)NC(=O)[C@H](CC(C)C)N(C)C(=O)[C@H](C(C)C)NC(=O)[C@H](C)N(C)C(=O)CN(C)C1=O [compound 5] (HELM PEPTIDE1{A.[dA].[meL].[meL].[meV].[meA].[Abu].[Sar].[meA].V.[meL]}$PEPTIDE1,PEPTIDE1,1:R1-11:R2$$$V2.0) |  | less than 50% |  |
| CC[C@@H]1NC(=O)[C@H](C)N(C)C(=O)[C@H](C(C)C)N(C)C(=O)[C@H](CC(C)C)N(C)C(=O)[C@H](C)N(C)C(=O)[C@@H](C)NC(=O)[C@H](C)NC(=O)[C@H](CC(C)C)N(C)C(=O)[C@H](C(C)C)NC(=O)[C@H](CC(C)C)N(C)C(=O)CN(C)C1=O [compound 8] (HELM PEPTIDE1{A.[dA].[meA].[meL].[meV].[meA].[Abu].[Sar].[meL].V.[meL]}$PEPTIDE1,PEPTIDE1,1:R1-11:R2$$$V2.0) |  | less than 50% |  |
| cyclosporin O [CsO] |  |  | permeability compared with CsA (in words) [2]: lower permeability of CsO than CsA; permeability compared with CsA (in words) [3]: lower permeability of CsO than CsA |
